{"source": "paper PMC7180948", "about": "“New Insights into 4-Anilinoquinazolines as Inhibitors of Cardiac Troponin I–Interacting Kinase (TNNi3K)” (Molecules, 2020)", "assay_in_all_cases": "biochemical", "parameters_in_all_cases": "KINOMEscan competition binding panel (Eurofins DiscoverX), single concentration, % inhibition", "conditions_in_all_cases": "read-out: 7 at 1 µM % inhibition", "key": {"ADCK4": {"target": "T1, ADCK4 (Homo sapiens, UniProt Q96D53)", "T1 construct": "gene COQ8B", "procedure,_shortened": "(§1)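 KINOMEscan binding panel of >400 kinases, run by Eurofins DiscoverX, with compounds tested at a single concentration of 1 µM.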"}, "AKT1": {"target": "AKT1 (Homo sapiens, UniProt P31749)", "sequence (P31749 whole entry)": "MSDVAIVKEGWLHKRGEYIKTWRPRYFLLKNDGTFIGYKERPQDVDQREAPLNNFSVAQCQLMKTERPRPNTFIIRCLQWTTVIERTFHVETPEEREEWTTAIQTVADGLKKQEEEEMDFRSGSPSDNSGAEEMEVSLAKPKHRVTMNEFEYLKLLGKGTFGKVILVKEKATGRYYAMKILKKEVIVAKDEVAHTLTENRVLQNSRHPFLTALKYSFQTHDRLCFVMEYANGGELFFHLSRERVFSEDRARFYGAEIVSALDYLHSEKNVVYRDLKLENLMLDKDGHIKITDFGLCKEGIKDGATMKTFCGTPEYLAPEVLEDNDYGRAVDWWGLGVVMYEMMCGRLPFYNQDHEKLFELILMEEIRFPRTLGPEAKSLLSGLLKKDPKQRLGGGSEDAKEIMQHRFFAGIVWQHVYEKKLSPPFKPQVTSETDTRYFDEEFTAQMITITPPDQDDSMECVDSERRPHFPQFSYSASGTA", "procedure,_shortened": "as §1"}, "AMPK-alpha1": {"target": "T2, AMPK-alpha1 (Homo sapiens, UniProt Q13131)", "T2 construct": "gene PRKAA1", "procedure,_shortened": "as §1"}, "BRAF(V600E)": {"target": "BRAF(V600E) (Homo sapiens, UniProt P15056, V600E)", "procedure,_shortened": "as §1"}, "CAMK1B": {"target": "T3, CAMK1B (Homo sapiens, UniProt Q6P2M8)", "T3 construct": "gene PNCK", "procedure,_shortened": "as §1"}, "CDK11": {"target": "T4, CDK11 (Homo sapiens, UniProt Q9BWU1)", "T4 construct": "gene CDK19", "procedure,_shortened": "as §1"}, "CHEK1": {"target": "CHEK1 (Homo sapiens, UniProt O14757)", "procedure,_shortened": "as §1"}, "DAPK1": {"target": "DAPK1 (Homo sapiens, UniProt P53355)", "procedure,_shortened": "as §1"}, "EGFR(G719S)": {"target": "EGFR(G719S) (Homo sapiens, UniProt P00533, G719S)", "sequence (P00533 whole entry G719S)": "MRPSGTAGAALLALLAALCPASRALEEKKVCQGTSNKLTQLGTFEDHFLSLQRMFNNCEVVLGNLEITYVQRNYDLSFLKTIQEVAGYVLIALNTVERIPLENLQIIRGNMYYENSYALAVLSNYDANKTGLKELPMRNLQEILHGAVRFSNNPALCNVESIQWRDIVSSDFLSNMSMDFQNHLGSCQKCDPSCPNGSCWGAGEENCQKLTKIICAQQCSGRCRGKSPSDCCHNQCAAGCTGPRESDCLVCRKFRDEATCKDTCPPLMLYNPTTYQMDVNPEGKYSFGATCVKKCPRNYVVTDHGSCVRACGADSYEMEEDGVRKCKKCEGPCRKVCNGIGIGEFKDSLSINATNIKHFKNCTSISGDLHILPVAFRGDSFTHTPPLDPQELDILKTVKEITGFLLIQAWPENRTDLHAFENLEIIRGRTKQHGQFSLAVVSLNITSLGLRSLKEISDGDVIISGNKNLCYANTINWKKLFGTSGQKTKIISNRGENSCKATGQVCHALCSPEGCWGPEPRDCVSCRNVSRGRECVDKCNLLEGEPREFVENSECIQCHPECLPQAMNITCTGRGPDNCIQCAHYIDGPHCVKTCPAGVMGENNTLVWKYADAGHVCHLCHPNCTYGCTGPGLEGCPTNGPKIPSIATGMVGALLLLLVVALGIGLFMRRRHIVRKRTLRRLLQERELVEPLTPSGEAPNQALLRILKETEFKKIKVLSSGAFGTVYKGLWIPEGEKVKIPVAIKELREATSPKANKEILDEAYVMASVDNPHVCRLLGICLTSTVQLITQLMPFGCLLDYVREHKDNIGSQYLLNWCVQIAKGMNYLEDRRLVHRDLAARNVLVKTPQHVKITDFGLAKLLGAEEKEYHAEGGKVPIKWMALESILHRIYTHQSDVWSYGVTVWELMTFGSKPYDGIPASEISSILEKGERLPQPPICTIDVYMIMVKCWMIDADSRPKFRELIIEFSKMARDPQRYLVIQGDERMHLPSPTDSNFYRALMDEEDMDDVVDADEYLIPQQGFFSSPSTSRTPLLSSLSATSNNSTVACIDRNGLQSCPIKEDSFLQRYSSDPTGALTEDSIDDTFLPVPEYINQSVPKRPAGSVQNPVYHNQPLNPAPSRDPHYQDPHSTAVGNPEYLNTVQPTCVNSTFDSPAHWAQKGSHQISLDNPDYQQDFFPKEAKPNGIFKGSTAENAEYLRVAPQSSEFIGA", "procedure,_shortened": "as §1"}, "ERK1": {"target": "T5, ERK1 (Homo sapiens, UniProt P27361)", "T5 construct": "gene MAPK3", "procedure,_shortened": "as §1"}, "ERK8": {"target": "T6, ERK8 (Homo sapiens, UniProt Q8TD08)", "T6 construct": "gene MAPK15", "procedure,_shortened": "as §1"}, "[1]": {"target": "T7, JAK3(JH1domain-catalytic) (Homo sapiens, UniProt P52333)", "T7 construct": "JH1domain-catalytic", "procedure,_shortened": "as §1"}, "JNK1": {"target": "T8, JNK1 (Homo sapiens, UniProt P45983)", "T8 construct": "gene MAPK8", "procedure,_shortened": "as §1"}, "LYN": {"target": "LYN (Homo sapiens, UniProt P07948)", "sequence (P07948 whole entry)": "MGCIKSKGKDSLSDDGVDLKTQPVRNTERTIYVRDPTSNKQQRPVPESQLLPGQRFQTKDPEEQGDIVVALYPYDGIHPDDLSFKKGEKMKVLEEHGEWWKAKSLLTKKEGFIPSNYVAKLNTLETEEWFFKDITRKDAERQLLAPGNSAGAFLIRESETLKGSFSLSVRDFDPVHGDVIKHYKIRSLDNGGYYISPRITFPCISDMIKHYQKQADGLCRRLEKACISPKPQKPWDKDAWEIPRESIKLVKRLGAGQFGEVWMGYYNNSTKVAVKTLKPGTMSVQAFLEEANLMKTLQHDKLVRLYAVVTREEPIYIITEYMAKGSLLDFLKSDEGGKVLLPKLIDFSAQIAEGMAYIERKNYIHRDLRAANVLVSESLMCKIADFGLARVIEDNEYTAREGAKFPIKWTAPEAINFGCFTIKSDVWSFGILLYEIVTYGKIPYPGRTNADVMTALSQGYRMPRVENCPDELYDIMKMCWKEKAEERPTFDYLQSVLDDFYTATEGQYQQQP", "procedure,_shortened": "as §1"}, "MAK": {"target": "MAK (Homo sapiens, UniProt P20794)", "procedure,_shortened": "as §1"}, "MYO3A": {"target": "MYO3A (Homo sapiens, UniProt Q8NEV4)", "sequence (Q8NEV4 whole entry)": "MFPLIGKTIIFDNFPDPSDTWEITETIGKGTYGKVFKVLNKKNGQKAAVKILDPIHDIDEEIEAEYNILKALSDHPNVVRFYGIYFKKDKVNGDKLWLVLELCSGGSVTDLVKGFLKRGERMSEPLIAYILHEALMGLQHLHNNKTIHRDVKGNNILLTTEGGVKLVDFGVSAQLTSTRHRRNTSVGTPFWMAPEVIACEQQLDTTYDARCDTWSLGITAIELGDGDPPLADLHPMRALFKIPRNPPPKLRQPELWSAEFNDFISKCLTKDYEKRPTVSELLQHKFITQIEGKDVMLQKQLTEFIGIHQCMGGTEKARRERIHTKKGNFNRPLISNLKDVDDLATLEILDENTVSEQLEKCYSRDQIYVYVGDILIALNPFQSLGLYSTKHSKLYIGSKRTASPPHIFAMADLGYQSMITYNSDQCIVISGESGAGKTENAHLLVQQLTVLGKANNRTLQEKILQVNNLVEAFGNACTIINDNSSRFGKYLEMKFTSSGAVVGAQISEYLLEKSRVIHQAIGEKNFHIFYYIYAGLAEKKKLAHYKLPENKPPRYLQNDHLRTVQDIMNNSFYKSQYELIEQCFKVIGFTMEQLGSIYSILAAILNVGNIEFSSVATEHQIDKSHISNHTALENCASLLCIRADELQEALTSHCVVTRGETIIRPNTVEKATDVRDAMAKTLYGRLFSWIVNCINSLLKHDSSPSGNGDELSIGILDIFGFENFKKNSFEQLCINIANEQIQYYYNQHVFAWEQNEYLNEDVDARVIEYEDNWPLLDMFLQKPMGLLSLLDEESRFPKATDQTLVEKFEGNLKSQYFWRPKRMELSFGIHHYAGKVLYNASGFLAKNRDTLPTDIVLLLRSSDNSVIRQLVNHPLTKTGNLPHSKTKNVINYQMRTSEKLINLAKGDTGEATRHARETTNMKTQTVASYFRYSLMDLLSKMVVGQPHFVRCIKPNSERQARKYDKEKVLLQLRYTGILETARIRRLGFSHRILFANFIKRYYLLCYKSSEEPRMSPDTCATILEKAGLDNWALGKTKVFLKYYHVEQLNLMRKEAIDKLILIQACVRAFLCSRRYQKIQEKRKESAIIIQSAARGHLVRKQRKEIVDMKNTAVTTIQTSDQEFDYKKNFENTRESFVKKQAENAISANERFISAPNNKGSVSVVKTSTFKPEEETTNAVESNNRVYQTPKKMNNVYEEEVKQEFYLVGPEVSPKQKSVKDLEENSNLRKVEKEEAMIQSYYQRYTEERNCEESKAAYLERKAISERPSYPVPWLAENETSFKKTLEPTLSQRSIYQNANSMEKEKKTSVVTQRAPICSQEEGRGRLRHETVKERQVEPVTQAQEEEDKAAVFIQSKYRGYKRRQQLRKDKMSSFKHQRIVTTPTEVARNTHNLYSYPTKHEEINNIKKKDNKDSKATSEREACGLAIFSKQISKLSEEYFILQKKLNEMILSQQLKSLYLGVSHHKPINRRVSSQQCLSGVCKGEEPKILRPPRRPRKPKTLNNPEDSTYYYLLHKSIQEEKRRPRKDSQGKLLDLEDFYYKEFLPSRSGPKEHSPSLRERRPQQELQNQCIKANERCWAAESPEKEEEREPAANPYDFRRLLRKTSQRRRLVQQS", "procedure,_shortened": "as §1"}, "NDR1": {"target": "T9, NDR1 (Homo sapiens, UniProt Q15208)", "T9 construct": "gene STK38", "T9 sequence (Q15208 whole entry)": "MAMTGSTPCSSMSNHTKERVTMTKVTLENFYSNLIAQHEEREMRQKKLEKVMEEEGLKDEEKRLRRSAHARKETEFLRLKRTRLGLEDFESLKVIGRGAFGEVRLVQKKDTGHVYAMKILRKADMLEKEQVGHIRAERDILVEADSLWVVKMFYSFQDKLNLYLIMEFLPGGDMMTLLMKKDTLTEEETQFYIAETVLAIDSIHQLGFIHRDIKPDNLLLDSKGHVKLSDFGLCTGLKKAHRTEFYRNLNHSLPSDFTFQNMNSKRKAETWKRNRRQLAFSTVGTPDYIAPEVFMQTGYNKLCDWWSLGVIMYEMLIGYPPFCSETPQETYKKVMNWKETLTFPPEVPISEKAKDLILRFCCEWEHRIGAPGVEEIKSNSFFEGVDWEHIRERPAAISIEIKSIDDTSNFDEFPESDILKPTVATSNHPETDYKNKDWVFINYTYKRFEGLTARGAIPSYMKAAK", "procedure,_shortened": "as §1"}, "PIK3CB": {"target": "PIK3CB (Homo sapiens, UniProt P42338)", "procedure,_shortened": "as §1"}, "PKN1": {"target": "PKN1 (Homo sapiens, UniProt Q16512)", "procedure,_shortened": "as §1"}, "PLK1": {"target": "PLK1 (Homo sapiens, UniProt P53350)", "procedure,_shortened": "as §1"}, "[2]": {"target": "T10, RPS6KA4(Kin.Dom.2-C-terminal) (Homo sapiens, UniProt O75676)", "T10 construct": "Kin.Dom.2-C-terminal", "procedure,_shortened": "as §1"}, "[3]": {"target": "T11, RSK2(Kin.Dom.2-C-terminal) (Homo sapiens, UniProt P51812)", "T11 construct": "gene RPS6KA3; Kin.Dom.2-C-terminal", "T11 sequence (P51812 whole entry)": "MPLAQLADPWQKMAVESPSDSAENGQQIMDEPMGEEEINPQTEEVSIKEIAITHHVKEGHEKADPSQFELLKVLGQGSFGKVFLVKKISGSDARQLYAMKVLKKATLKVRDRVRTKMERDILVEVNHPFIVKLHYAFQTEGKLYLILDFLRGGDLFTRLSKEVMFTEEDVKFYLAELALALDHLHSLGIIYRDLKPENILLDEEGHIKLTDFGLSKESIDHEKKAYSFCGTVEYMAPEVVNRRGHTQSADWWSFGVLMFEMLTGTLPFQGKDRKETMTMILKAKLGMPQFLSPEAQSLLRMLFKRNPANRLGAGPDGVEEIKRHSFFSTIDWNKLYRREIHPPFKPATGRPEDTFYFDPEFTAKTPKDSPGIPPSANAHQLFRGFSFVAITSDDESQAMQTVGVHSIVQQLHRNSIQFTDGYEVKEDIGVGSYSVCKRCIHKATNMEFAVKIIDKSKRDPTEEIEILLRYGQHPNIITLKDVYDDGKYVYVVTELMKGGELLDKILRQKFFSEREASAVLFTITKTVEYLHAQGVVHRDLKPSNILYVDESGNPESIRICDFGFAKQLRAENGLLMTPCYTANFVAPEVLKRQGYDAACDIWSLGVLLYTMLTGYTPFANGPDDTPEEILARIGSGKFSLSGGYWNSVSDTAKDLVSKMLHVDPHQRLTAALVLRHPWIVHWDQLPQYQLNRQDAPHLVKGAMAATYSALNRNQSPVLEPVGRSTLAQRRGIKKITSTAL", "procedure,_shortened": "as §1"}, "TGFBR1": {"target": "TGFBR1 (Homo sapiens, UniProt P36897)", "procedure,_shortened": "as §1"}, "YANK2": {"target": "T12, YANK2 (Homo sapiens, UniProt Q9NY57)", "T12 construct": "gene STK32B", "procedure,_shortened": "as §1"}}}
{"compound": "CNS(=O)(=O)c1ccc(N(C)C)c(Nc2ncnc3cc(OC)c(OC)cc23)c1", "note": "[compound 7, 3-((6,7-dimethoxyquinazolin-4-yl)amino)-4-(dimethylamino)-N-methylbenzenesulfonamide]", "values": [{"measurement": "inhibition at 1 µM", "setting": "ADCK4", "result": 0, "unit": "%"}, {"measurement": "inhibition at 1 µM", "setting": "AKT1", "result": 0, "unit": "%"}, {"measurement": "inhibition at 1 µM", "setting": "AMPK-alpha1", "result": 0, "unit": "%"}, {"measurement": "inhibition at 1 µM", "setting": "BRAF(V600E)", "result": 83, "unit": "%"}, {"measurement": "inhibition at 1 µM", "setting": "CAMK1B", "result": 46, "unit": "%"}, {"measurement": "inhibition at 1 µM", "setting": "CDK11", "result": 0, "unit": "%"}, {"measurement": "inhibition at 1 µM", "setting": "CHEK1", "result": 0, "unit": "%"}, {"measurement": "inhibition at 1 µM", "setting": "DAPK1", "result": 0, "unit": "%"}, {"measurement": "inhibition at 1 µM", "setting": "EGFR(G719S)", "result": 0, "unit": "%"}, {"measurement": "inhibition at 1 µM", "setting": "ERK1", "result": 0, "unit": "%"}, {"measurement": "inhibition at 1 µM", "setting": "ERK8", "result": 13, "unit": "%"}, {"measurement": "inhibition at 1 µM", "setting": "[1]", "result": 17, "unit": "%"}, {"measurement": "inhibition at 1 µM", "setting": "JNK1", "result": 8, "unit": "%"}, {"measurement": "inhibition at 1 µM", "setting": "LYN", "result": 0, "unit": "%"}, {"measurement": "inhibition at 1 µM", "setting": "MAK", "result": 0, "unit": "%"}, {"measurement": "inhibition at 1 µM", "setting": "MYO3A", "result": 0, "unit": "%"}, {"measurement": "inhibition at 1 µM", "setting": "NDR1", "result": 0, "unit": "%"}, {"measurement": "inhibition at 1 µM", "setting": "PIK3CB", "result": 2, "unit": "%"}, {"measurement": "inhibition at 1 µM", "setting": "PKN1", "result": 0, "unit": "%"}, {"measurement": "inhibition at 1 µM", "setting": "PLK1", "result": 0, "unit": "%"}, {"measurement": "inhibition at 1 µM", "setting": "[2]", "result": 9, "unit": "%"}, {"measurement": "inhibition at 1 µM", "setting": "[3]", "result": 33, "unit": "%"}, {"measurement": "inhibition at 1 µM", "setting": "TGFBR1", "result": 0, "unit": "%"}, {"measurement": "inhibition at 1 µM", "setting": "YANK2", "result": 0, "unit": "%"}]}
